Source: US20250270209A1 (INTERLINE THERAPEUTICS, INC., priority 2022, published 2025)

Tests used:
[1] = target: T1, wild type LRRK2 overexpressed in recombinant HEK-293T cells (Homo sapiens, UniProt Q5S007); test: pS935 LRRK2 Cell Assay (HTRF, phospho-LRRK2 Ser935); type: cell-based; conditions: LRRK2 Inhibition, Table 8, 2 hours compound incubation
T1 construct: host or cells: HEK293T (transient transfection with pCMV-LRRK2 WT plasmid)
In short: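 HEK-293T cells transiently transfected with wild-type LRRK2 for 24 h, plated overnight, then treated 2 h at 37° C with compound (top 10 μM, 3-fold, 9 doses, duplicates, 0.2% DMSO). Lysates probed overnight at 23° C by sandwich HTRF for pSer935; 665/615 nm ratio read.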

LRRK2 wild type enzyme = LRRK2 wild type enzyme (Homo sapiens, UniProt Q5S007); test: Biochemical Assay: LRRK2 TR-FRET (LanthaScreen) kinase assay with LRRKtide substrate; conditions: LRRK2 Inhibition, Table 8
Sequence of LRRK2 wild type enzyme (Q5S007 whole entry): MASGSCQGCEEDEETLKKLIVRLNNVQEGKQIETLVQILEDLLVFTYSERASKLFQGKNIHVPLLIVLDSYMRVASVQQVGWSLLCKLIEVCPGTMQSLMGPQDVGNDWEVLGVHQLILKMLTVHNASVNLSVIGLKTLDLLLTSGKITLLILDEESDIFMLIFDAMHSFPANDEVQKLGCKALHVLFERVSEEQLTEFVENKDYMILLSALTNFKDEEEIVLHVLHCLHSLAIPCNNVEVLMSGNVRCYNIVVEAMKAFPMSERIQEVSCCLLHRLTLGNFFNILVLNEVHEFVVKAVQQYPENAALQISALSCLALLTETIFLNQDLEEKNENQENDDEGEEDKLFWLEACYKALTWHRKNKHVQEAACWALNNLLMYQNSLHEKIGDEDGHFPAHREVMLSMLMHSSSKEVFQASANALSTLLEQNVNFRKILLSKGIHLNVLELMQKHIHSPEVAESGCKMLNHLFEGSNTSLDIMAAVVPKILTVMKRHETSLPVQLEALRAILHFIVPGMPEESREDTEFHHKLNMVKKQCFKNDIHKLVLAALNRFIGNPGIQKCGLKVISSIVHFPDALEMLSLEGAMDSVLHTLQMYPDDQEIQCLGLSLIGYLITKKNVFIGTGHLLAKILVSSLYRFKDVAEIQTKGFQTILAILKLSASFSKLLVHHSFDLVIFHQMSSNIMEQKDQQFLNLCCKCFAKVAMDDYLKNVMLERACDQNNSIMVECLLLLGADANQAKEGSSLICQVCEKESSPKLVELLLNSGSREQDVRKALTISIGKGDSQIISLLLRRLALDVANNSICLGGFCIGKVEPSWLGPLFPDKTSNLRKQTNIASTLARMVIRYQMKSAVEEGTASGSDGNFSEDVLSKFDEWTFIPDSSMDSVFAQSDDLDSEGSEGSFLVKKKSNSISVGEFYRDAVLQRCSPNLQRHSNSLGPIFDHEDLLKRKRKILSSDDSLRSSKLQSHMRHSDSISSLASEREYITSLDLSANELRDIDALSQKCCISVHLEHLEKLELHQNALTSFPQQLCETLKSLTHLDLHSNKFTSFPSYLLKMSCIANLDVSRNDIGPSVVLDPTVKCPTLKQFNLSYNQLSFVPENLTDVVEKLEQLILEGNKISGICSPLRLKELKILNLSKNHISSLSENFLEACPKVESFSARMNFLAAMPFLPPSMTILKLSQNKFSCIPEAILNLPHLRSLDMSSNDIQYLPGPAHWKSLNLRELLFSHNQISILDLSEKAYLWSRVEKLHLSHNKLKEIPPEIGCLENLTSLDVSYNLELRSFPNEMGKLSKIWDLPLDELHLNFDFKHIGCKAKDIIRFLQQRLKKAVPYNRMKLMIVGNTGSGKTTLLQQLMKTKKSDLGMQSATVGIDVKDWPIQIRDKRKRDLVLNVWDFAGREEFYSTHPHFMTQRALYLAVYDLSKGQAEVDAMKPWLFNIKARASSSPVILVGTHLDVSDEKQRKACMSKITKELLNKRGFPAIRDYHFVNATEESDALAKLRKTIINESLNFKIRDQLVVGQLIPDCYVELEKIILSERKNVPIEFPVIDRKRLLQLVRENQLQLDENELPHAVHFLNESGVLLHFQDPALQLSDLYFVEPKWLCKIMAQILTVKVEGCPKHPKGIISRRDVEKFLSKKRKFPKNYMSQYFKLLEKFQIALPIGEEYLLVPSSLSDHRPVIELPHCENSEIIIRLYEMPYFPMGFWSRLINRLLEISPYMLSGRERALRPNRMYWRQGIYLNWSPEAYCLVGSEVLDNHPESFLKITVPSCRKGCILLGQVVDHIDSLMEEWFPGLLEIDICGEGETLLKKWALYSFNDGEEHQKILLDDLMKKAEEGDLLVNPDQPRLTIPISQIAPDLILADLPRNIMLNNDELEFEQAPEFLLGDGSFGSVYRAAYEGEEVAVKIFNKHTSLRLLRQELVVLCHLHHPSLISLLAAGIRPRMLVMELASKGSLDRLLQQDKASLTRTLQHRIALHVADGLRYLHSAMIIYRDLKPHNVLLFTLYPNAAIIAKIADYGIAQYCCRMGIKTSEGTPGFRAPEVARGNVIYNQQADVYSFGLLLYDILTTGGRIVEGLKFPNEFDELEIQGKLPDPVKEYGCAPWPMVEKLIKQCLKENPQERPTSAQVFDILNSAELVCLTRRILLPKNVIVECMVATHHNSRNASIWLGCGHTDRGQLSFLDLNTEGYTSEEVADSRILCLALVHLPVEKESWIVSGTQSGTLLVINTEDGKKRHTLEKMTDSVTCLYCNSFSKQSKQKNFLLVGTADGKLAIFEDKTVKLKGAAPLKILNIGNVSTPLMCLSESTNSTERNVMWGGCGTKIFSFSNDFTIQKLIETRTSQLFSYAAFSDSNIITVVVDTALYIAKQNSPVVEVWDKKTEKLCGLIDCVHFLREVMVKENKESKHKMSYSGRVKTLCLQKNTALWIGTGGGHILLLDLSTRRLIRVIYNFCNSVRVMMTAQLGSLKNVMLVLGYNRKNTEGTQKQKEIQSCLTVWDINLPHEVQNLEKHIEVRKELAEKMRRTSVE
In short: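 Human wild-type LRRK2 (3 nM) preincubated 15 min with compound (11-point, 3-fold, top 10 μM), then reacted 120 min at 23 °C with 400 nM LRRKtide and 25 μM ATP, pH 8.0. Stopped with EDTA; Tb-anti-pLRRKtide TR-FRET read after 30 min.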

T1 sequence (Q5S007 whole entry): as above

Row | SMILES | IC50 [1] [nM] | IC50 (LRRK2 wild type enzyme) [nM]
1 | C[C@@H]1C[C@H](n2c(CC(=O)Nc3ncc(C4CC4)cn3)nc3cnc4ccc(C#N)cc4c32)CCO1 [Compound 344, N-(5-cyclopropyl-2-pyrimidinyl){3-[(2R)-2-methyltetrahydro-2H-pyran-4-yl]-12-cyano-3,5,8-triazatricyclo[7.4.0.0^2,6]trideca-1(9),2(6),4,7,10,12-hexaen-4-yl}acetamide] | 4.11 | 0.453
2 | C[C@@H]1C[C@H](n2c(CC(=O)Nc3ccnn3C3COC3)nc3cnc4ccc(C#N)cc4c32)CCO1 [Compound 345, N-[1-(3-oxetanyl)-5-pyrazolyl]{3-[(2R,4R)-2-methyltetrahydro-2H-pyran-4-yl]-12-cyano-3,5,8-triazatricyclo[7.4.0.0^2,6]trideca-1(9),2(6),4,7,10,12-hexaen-4-yl}acetamide] | 52.6 | 0.573
3 | C[C@@H]1C[C@H](n2c(CC(=O)Nc3ccn(C4COC4)n3)nc3cnc4ccc(C#N)cc4c32)CCO1 [Compound 346, N-[1-(3-oxetanyl)-3-pyrazolyl]{2-[(2R,4R)-2-methyltetrahydro-2H-pyran-4-yl]-12-cyano-3,5,8-triazatricyclo[7.4.0.0^2,6]trideca-1(9),2(6),4,7,10,12-hexaen-4-yl}acetamide] | 28.5 | 0.555
4 | C[C@@H]1C[C@H](n2c(CC(=O)N[C@H]3C[C@@H]3c3cccnc3)nc3cnc4ccc(C#N)cc4c32)CCO1 [Compound 347, N-[(1S,2R)-2-(3-pyridyl)cyclopropyl]{3-[(2R,4R)-2-methyltetrahydro-2H-pyran-4-yl]-12-cyano-3,5,8-triazatricyclo[7.4.0.0^2,6]trideca-1(9),2(6),4,7,10,12-hexaen-4-yl}acetamide] | 144 | 1.28
5 | C[C@@H]1C[C@H](n2c(CC(=O)N[C@@H]3C[C@H]3c3cccnc3)nc3cnc4ccc(C#N)cc4c32)CCO1 [Compound 348, N-[(1R,2S)-2-(3-pyridyl)cyclopropyl]{3-[(2R,4R)-2-methyltetrahydro-2H-pyran-4-yl]-12-cyano-3,5,8-triazatricyclo[7.4.0.0^2,6]trideca-1(9),2(6),4,7,10,12-hexaen-4-yl}acetamide] | 32.3 | 0.724
6 | Cc1noc(NC(=O)Cc2nc3cnc4ccc(C#N)cc4c3n2[C@@H]2CCO[C@H](C)C2)c1C [Compound 349, N-(3,4-dimethyl-5-isoxazolyl){3-[(2R,4R)-2-methyltetrahydro-2H-pyran-4-yl]-12-cyano-3,5,8-triazatricyclo[7.4.0.0^2,6]trideca-1(9),2(6),4,7,10,12-hexaen-4-yl}acetamide] | 7.43 | 0.547
7 | Cc1cnn(C)c1NC(=O)Cc1nc2cnc3ccc(C#N)cc3c2n1[C@@H]1CCO[C@H](C)C1 [Compound 350, N-(1-methyl-4-methyl-5-pyrazolyl){3-[(2R,4R)-2-methyltetrahydro-2H-pyran-4-yl]-12-cyano-3,5,8-triazatricyclo[7.4.0.0^2,6]trideca-1(9),2(6),4,7,10,12-hexaen-4-yl}acetamide] | 15.4 | 0.487
8 | C[C@@H]1C[C@H](n2c(CC(=O)Nc3ccno3)nc3cnc4ccc(Cl)cc4c32)CCO1 [Compound 351, N-5-isoxazolyl{3-[(2R,4R)-2-methyltetrahydro-2H-pyran-4-yl]-12-chloro-3,5,8-triazatricyclo[7.4.0.0^2,6]trideca-1(9),2(6),4,7,10,12-hexaen-4-yl}acetamide] | 10.4 | 0.597
9 | C[C@@H]1C[C@H](n2c(CC(=O)Nc3ccon3)nc3cnc4ccc(Cl)cc4c32)CCO1 [Compound 352, N-3-isoxazolyl{3-[(2R,4R)-2-methyltetrahydro-2H-pyran-4-yl]-12-chloro-3,5,8-triazatricyclo[7.4.0.0^2,6]trideca-1(9),2(6),4,7,10,12-hexaen-4-yl}acetamide] | 4.06 | 0.507
10 | C[C@@H]1C[C@H](n2c(CC(=O)Nc3ncccn3)nc3cnc4ccc(Cl)cc4c32)CCO1 [Compound 353, N-2-pyrimidinyl{3-[(2R,4R)-2-methyltetrahydro-2H-pyran-4-yl]-12-chloro-3,5,8-triazatricyclo[7.4.0.0^2,6]trideca-1(9),2(6),4,7,10,12-hexaen-4-yl}acetamide] | 1.84 | 0.395
11 | C[C@@H]1C[C@H](n2c(CC(=O)Nc3ccn(C4CC4)n3)nc3cnc4ccc(C#N)cc4c32)CCO1 [Compound 354, N-(1-cyclopropyl-3-pyrazolyl){3-[(2R,4R)-2-methyltetrahydro-2H-pyran-4-yl]-12-cyano-3,5,8-triazatricyclo[7.4.0.0^2,6]trideca-1(9),2(6),4,7,10,12-hexaen-4-yl}acetamide] | 14.8 | 0.447
12 | C[C@@H]1C[C@H](n2c(CC(=O)Nc3ncc(C(F)(F)F)cn3)nc3cnc4ccc(C#N)cc4c32)CCO1 [Compound 355, N-[5-(trifluoromethyl)-2-pyrimidinyl]{3-[(2R,4R)-2-methyltetrahydro-2H-pyran-4-yl]-12-cyano-3,5,8-triazatricyclo[7.4.0.0^2,6]trideca-1(9),2(6),4,7,10,12-hexaen-4-yl}acetamide] | 3.92 | 0.491
13 | Cc1onc(NC(=O)Cc2nc3cnc4ccc(C#N)cc4c3n2[C@@H]2CCO[C@H](C)C2)c1C [Compound 356, N-(4,5-dimethyl-3-isoxazolyl){3-[(2R,4R)-2-methyltetrahydro-2H-pyran-4-yl]-12-cyano-3,5,8-triazatricyclo[7.4.0.0^2,6]trideca-1(9),2(6),4,7,10,12-hexaen-4-yl}acetamide] | 7.78 | 0.439
14 | C[C@@H]1C[C@H](n2c(CC(=O)N[C@@H]3CCCc4cccnc43)nc3cnc4ccc(C#N)cc4c32)CCO1 [Compound 357, N-[(R)-5,6,7,8-tetrahydro-8-quinolyl]{3-[(2R,4R)-2-methyltetrahydro-2H-pyran-4-yl]-12-cyano-3,5,8-triazatricyclo[7.4.0.0^2,6]trideca-1(9),2(6),4,7,10,12-hexaen-4-yl}acetamide] | 10.7 | 0.628
15 | C[C@@H]1C[C@H](n2c(CC(=O)N[C@H]3CCCc4cccnc43)nc3cnc4ccc(C#N)cc4c32)CCO1 [Compound 358, N-[(S)-5,6,7,8-tetrahydro-8-quinolyl]{3-[(2R,4R)-2-methyltetrahydro-2H-pyran-4-yl]-12-cyano-3,5,8-triazatricyclo[7.4.0.0^2,6]trideca-1(9),2(6),4,7,10,12-hexaen-4-yl}acetamide] | 24.5 | 0.602
16 | C[C@@H]1C[C@H](n2c(CC(=O)Nc3cc(C4CC4)on3)nc3cnc4ccc(C#N)cc4c32)CCO1 [Compound 359, N-(5-cyclopropyl-3-isoxazolyl){3-[(2R,4R)-2-methyltetrahydro-2H-pyran-4-yl]-12-cyano-3,5,8-triazatricyclo[7.4.0.0^2,6]trideca-1(9),2(6),4,7,10,12-hexaen-4-yl}acetamide] | 4.76 | 0.525
17 | C[C@@H]1C[C@H](n2c(CC(=O)NC3(c4ncccn4)CC3)nc3cnc4ccc(C#N)cc4c32)CCO1 [Compound 360, N-[1-(2-pyrimidinyl)cyclopropyl]{3-[(2R,4R)-2-methyltetrahydro-2H-pyran-4-yl]-12-cyano-3,5,8-triazatricyclo[7.4.0.0^2,6]trideca-1,4,6,8,10,12-hexaen-4-yl}acetamide] | 104 | 1.24
